Source: PubChem BioAssay AID1259407 (Chemical Carcinogenesis Research Information System (CCRIS), 2018)
Activity calls are given as the source filed them. How the calls were made is not given here.

Tested on: CCRIS mutagenicity, Ames/micronucleus/aberration tests
Test: CCRIS mutagenicity studies
[1] = Test System: AMES SALMONELLA TYPHIMURIUM, Strain/Indicator: TA98, Metabolic Activation: NONE, Method: PREINCUBATION
[2] = Test System: AMES SALMONELLA TYPHIMURIUM, Strain/Indicator: TA100, Metabolic Activation: NONE, Method: PREINCUBATION
[3] = Test System: AMES SALMONELLA TYPHIMURIUM, Strain/Indicator: TA98, Metabolic Activation: RAT, LIVER, S-9, AROCLOR 1254, Method: STANDARD PLATE
[4] = Test System: AMES SALMONELLA TYPHIMURIUM, Strain/Indicator: TA98, Metabolic Activation: NONE, Method: STANDARD PLATE
[5] = Test System: AMES SALMONELLA TYPHIMURIUM, Strain/Indicator: TA100, Metabolic Activation: NONE, Method: STANDARD PLATE
[6] = Test System: AMES SALMONELLA TYPHIMURIUM, Strain/Indicator: TA100, Metabolic Activation: RAT, LIVER, S-9, AROCLOR 1254, Method: STANDARD PLATE
[7] = Test System: AMES SALMONELLA TYPHIMURIUM, Strain/Indicator: TA1537, Metabolic Activation: NONE, Method: STANDARD PLATE

CN(C)c1ccc(N)cc1
mutagenic call (End Point: IN VITRO CHROMOSOMAL ABERRATIONS, Test System: CHINESE HAMSTER LUNG CELLS (CHL), Metabolic Activation: NONE): active; positive (structural changes) | mutagenic call (End Point: IN VITRO CHROMOSOMAL ABERRATIONS, Test System: CHINESE HAMSTER LUNG CELLS (CHL), Metabolic Activation: RAT, LIVER, S-9, KC-400): inactive; negative; authors describe results at highest dose as equivocal | mutagenic call (End Point: IN VITRO CHROMOSOMAL ABERRATIONS, Test System: CHINESE HAMSTER OVARY CELLS (CHO), Metabolic Activation: NONE): inactive; positive at highest dose; authors describe overall results as negative | mutagenic call (End Point: IN VITRO CHROMOSOMAL ABERRATIONS, Test System: CHINESE HAMSTER OVARY CELLS (CHO), Metabolic Activation: RAT, LIVER, S-9, AROCLOR 1254): inactive; negative | mutagenic call (Test System: AMES SALMONELLA TYPHIMURIUM, Strain/Indicator: TA98, Metabolic Activation: HAMSTER, LIVER, S-9, AROCLOR 1254 (30%), Method: PREINCUBATION): active; positive | mutagenic call [1]: inactive; negative | mutagenic call (Test System: AMES SALMONELLA TYPHIMURIUM, Strain/Indicator: TA98, Metabolic Activation: RAT, LIVER, S-9, AROCLOR 1254 (30%), Method: PREINCUBATION): active; positive | mutagenic call (Test System: AMES SALMONELLA TYPHIMURIUM, Strain/Indicator: TA100, Metabolic Activation: HAMSTER, LIVER, S-9, AROCLOR 1254 (30%), Method: PREINCUBATION): inactive; negative | mutagenic call [2]: inactive; negative | mutagenic call (Test System: AMES SALMONELLA TYPHIMURIUM, Strain/Indicator: TA100, Metabolic Activation: RAT, LIVER, S-9, AROCLOR 1254 (30%), Method: PREINCUBATION): inactive; negative | mutagenic call (Test System: Ames Salmonella typhimurium, Strain/Indicator: TA102, Metabolic Activation: None, Method: Preincubation): inactive; negative | mutagenic call (Test System: Ames Salmonella typhimurium, Strain/Indicator: TA102, Metabolic Activation: Rat, Liver, S9, Aroclor 1254, Method: Preincubation): active; positive | mutagenic call (Test System: Ames Salmonella typhimurium, Strain/Indicator: TA104, Metabolic Activation: None, Method: Preincubation): inactive; negative | mutagenic call (Test System: Ames Salmonella typhimurium, Strain/Indicator: TA104, Metabolic Activation: Rat, Liver, S9, Aroclor 1254, Method: Preincubation): active; positive

O=C1c2cc(O)cc(O)c2C(=O)c2c1cc1c(c2O)[C@@H]2C=CO[C@@H]2O1
mutagenic call (Test System: UDS RODENT HEPATOCYTES, Strain/Indicator: THY INCORP, Metabolic Activation: NONE, Method: AUTORADIOGRAPHY): active; positive

CC(=O)Nc1ccc2c(c1OC(C)=O)Cc1ccccc1-2
mutagenic call [3]: inactive; negative

C1CCC(C2(C3CCCCC3)COCCOCCOCCOCCOCCOCCO2)CC1
mutagenic call [4]: inactive; negative | mutagenic call [3]: inactive; negative | mutagenic call [5]: inactive; negative | mutagenic call [6]: inactive; negative | mutagenic call (Test System: AMES SALMONELLA TYPHIMURIUM, Strain/Indicator: TA1530, Metabolic Activation: NONE, Method: STANDARD PLATE): inactive; negative | mutagenic call (Test System: AMES SALMONELLA TYPHIMURIUM, Strain/Indicator: TA1530, Metabolic Activation: RAT, LIVER, S-9, AROCLOR 1254, Method: STANDARD PLATE): inactive; negative | mutagenic call [7]: inactive; negative | mutagenic call (Test System: AMES SALMONELLA TYPHIMURIUM, Strain/Indicator: TA1537, Metabolic Activation: RAT, LIVER, S-9, AROCLOR 1254, Method: STANDARD PLATE): inactive; negative

Nc1ccccc1O
mutagenic call (Test System: AMES SALMONELLA TYPHIMURIUM, Strain/Indicator: TA98, Metabolic Activation: NONE): inactive; negative | mutagenic call (Test System: AMES SALMONELLA TYPHIMURIUM, Strain/Indicator: TA98, Metabolic Activation: S-9): inactive; negative

CC(C)N(CC(O)c1ccc(NS(C)(=O)=O)cc1)N=O (centres undefined)
mutagenic call (Test System: UDS HUMAN HEPATOCYTES, Strain/Indicator: THY INCORP, Metabolic Activation: NONE, Method: AUTORADIOGRAPHY): active; positive | mutagenic call (Test System: UDS RAT HEPATOCYTES, Strain/Indicator: THY INCORP, Metabolic Activation: NONE, Method: AUTORADIOGRAPHY): active; positive

Oc1cccc2[nH]c3ccccc3c12
mutagenic call (Test System: CHINESE HAMSTER OVARY, Strain/Indicator: CHO-K1-BH4 (HGPRT)/6-THIOGUANINE, Metabolic Activation: RAT, LIVER, S-9, AROCLOR (4%)): active; positive

CCC(=C(CC)c1ccc(O)cc1)c1ccc(O)cc1
mutagenic call (End Point: IN VITRO MICRONUCLEUS, Test System: CHL/IU CELLS, Metabolic Activation: NONE): active; positive

O[C@@H]1C=Cc2ccc3c(ccc4ccccc43)c2[C@H]1O
mutagenic call [4]: inactive; negative | mutagenic call [3]: active; positive | mutagenic call [5]: inactive; negative | mutagenic call [6]: active; positive

Oc1cc2c(cc1O)[C@@H]1c3ccc(O)c(O)c3OC[C@]1(O)C2
mutagenic call (Test System: AMES SALMONELLA TYPHIMURIUM, Strain/Indicator: TA98, Metabolic Activation: HAMSTER, LIVER, S-9, AROCLOR 1254, Method: PREINCUBATION): inactive; negative | mutagenic call [1]: inactive; negative | mutagenic call (Test System: AMES SALMONELLA TYPHIMURIUM, Strain/Indicator: TA98, Metabolic Activation: RAT, LIVER, S-9, AROCLOR 1254, Method: PREINCUBATION): inactive; negative | mutagenic call (Test System: AMES SALMONELLA TYPHIMURIUM, Strain/Indicator: TA100, Metabolic Activation: HAMSTER, LIVER, S-9, AROCLOR 1254, Method: PREINCUBATION): inactive; negative | mutagenic call [2]: inactive; negative | mutagenic call (Test System: AMES SALMONELLA TYPHIMURIUM, Strain/Indicator: TA100, Metabolic Activation: RAT, LIVER, S-9, AROCLOR 1254, Method: PREINCUBATION): inactive; negative | mutagenic call (Test System: AMES SALMONELLA TYPHIMURIUM, Strain/Indicator: TA1535, Metabolic Activation: HAMSTER, LIVER, S-9, AROCLOR 1254, Method: PREINCUBATION): inactive; negative | mutagenic call (Test System: AMES SALMONELLA TYPHIMURIUM, Strain/Indicator: TA1535, Metabolic Activation: NONE, Method: PREINCUBATION): inactive; negative | mutagenic call (Test System: AMES SALMONELLA TYPHIMURIUM, Strain/Indicator: TA1535, Metabolic Activation: RAT, LIVER, S-9, AROCLOR 1254, Method: PREINCUBATION): inactive; negative | mutagenic call (Test System: AMES SALMONELLA TYPHIMURIUM, Strain/Indicator: TA1537, Metabolic Activation: HAMSTER, LIVER, S-9, AROCLOR 1254, Method: PREINCUBATION): inactive; negative | mutagenic call (Test System: AMES SALMONELLA TYPHIMURIUM, Strain/Indicator: TA1537, Metabolic Activation: NONE, Method: PREINCUBATION): inactive; negative | mutagenic call (Test System: AMES SALMONELLA TYPHIMURIUM, Strain/Indicator: TA1537, Metabolic Activation: RAT, LIVER, S-9, AROCLOR 1254, Method: PREINCUBATION): inactive; negative

Oc1ccc2[nH]ccc2c1
mutagenic call [2]: inactive; negative

O=[N+]([O-])c1ccc2c(CCO)c[nH]c2c1
mutagenic call (Test System: AMES SALMONELLA TYPHIMURIUM, Strain/Indicator: TA97A, Metabolic Activation: NONE, Method: STANDARD PLATE): active; positive | mutagenic call (Test System: AMES SALMONELLA TYPHIMURIUM, Strain/Indicator: TA98(1,8-DNP6), Metabolic Activation: NONE, Method: STANDARD PLATE): active; positive | mutagenic call (Test System: AMES SALMONELLA TYPHIMURIUM, Strain/Indicator: TA98(NR), Metabolic Activation: NONE, Method: STANDARD PLATE): active; positive | mutagenic call (Test System: AMES SALMONELLA TYPHIMURIUM, Strain/Indicator: TA98, Metabolic Activation: NONE, Method: SEM (1.1) 100-2000 NM (TEST MATERIAL SOLVENT: DMSO) 100-2000 N 2000 N): active; positive | mutagenic call [5]: active; positive | mutagenic call (Test System: AMES SALMONELLA TYPHIMURIUM, Strain/Indicator: TA1535, Metabolic Activation: NONE, Method: STANDARD PLATE): inactive; negative | mutagenic call [7]: active; positive

CNc1ccnc(-c2cc(N(C)C)ccn2)c1.CNc1ccnc(-c2cc(N(C)C)ccn2)c1.F[P-](F)(F)(F)(F)F.F[P-](F)(F)(F)(F)F.F[P-](F)(F)(F)(F)F.F[P-](F)(F)(F)(F)F.[NH3+]Cc1ccnc(-c2cc(C[NH3+])ccn2)c1.[Os+2]
mutagenic call [4]: inactive; negative | mutagenic call [3]: inactive; negative | mutagenic call [5]: inactive; negative | mutagenic call [6]: inactive; negative

[N-]=[N+]=N[C@H](c1ccccc1)[C@@H](O)CO
mutagenic call (Test System: AMES SALMONELLA TYPHIMURIUM, Strain/Indicator: TA100, Metabolic Activation: RAT, LIVER, S-9, PCB, Method: PREINCUBATION): active; positive
